Measurements taken from US9034877B2 (Wayne State University, priority 2009, dated 2015).
Entries after “also recorded” stand apart in the source; their conditions may differ.

Key:
[1] = background statement; cited from earlier work
D3 receptor = biological target: T1, D3 receptor (Rattus norvegicus, UniProt P19020); assay: Inhibition of [3H]spiperone binding to cloned D3 receptors expressed in HEK-293 cells; conditions: for Ki: [3H]spiperone, rat D3 in HEK-293 cells
T1 construct: expressed in transfected cells

D2L receptor = biological target: T2, D2L receptor (Rattus norvegicus, UniProt P61169); assay: Inhibition of [3H]spiperone binding to cloned D2L receptors expressed in HEK-293 cells; conditions: rat D2L in HEK-293 cells, read-out: Ki, D2 receptor
T2 construct: expressed in transfected cells

6-OHDA lesioned rats = assay: Rotational experiment with 6-OHDA unilaterally lesioned rats; format: in vivo, rat
reserpinized rats = assay: Reversal of reserpine-induced hypolocomotion in rats; format: in vivo, rat; conditions: 10 μMol/kg; for Reversal of reserpine-induced hypolocomotion (horizontal locomotor activity): (−)19b i.p., ropinirole s.c., 18 h after reserpine 5 mg/kg s.c., 6 h
Text: Administration of reserpine induces catalepsy in rodents primarily by blocking the vesicular monoamine trasporter (VMAT) which helps in the internalization of monoamines into vesicles, resulting in metabolism of unprotected monoamines in the cytosol that ultimately causes depletion of monoamines in the synapse of the peripheral sympathetic nerve terminals. The ability of the compound (-)-19b to reverse the reserpine induced hypolocomotion was investigated. Ropinirole was used as standard reference compound in this study. Reserpine (5.0 mg/kg, s.c.) or saline (s.c.) were administered 18 h before the injection of drug or vehicle (i.p.). The rats were placed individually in chambers for 1 h for acclimatization purpose before the administration of the test drug, standard drug or vehicle. Immediately after administration of drug or vehicle, animals were individually placed in […] animal activity monitor chamber (45×30×20 cm) (AccuScan Instruments, Inc. Columbus, Ohio) to start measuring locomotor activity. Locomotion was monitored for 6 h. Consecutive interruption of two infrared beams situated 24 cm apart and 4 cm above the cage floor in the monitor chamber recorded movement. The data were presented as horizontal counts (HACTV). The effect of the individual doses of drugs on locomotor activity was compared with respect to saline treated controls (mean±S.E.M.). The data were analyzed by one way analysis of variance (ANOVA) followed by Dunnett's post-hoc test.

hD3 receptor = biological target: T3, hD3 receptor (Homo sapiens, UniProt P35462); assay: Stimulation of [35S]GTPγS binding, hD3 receptor expressed in CHO cells; format: biochemical
T3 construct: expressed in transfected cells; host or cells: CHO
T3 sequence (P35462 whole entry): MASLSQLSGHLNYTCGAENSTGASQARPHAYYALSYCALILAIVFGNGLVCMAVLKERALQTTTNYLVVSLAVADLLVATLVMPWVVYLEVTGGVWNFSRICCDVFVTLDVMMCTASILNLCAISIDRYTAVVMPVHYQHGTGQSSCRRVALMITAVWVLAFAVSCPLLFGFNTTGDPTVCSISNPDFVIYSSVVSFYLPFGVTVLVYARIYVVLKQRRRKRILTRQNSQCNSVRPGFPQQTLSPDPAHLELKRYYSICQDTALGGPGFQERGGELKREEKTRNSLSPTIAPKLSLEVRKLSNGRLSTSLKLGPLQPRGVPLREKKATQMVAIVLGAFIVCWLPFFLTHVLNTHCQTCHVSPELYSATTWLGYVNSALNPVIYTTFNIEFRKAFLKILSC

T1 sequence (P19020 whole entry): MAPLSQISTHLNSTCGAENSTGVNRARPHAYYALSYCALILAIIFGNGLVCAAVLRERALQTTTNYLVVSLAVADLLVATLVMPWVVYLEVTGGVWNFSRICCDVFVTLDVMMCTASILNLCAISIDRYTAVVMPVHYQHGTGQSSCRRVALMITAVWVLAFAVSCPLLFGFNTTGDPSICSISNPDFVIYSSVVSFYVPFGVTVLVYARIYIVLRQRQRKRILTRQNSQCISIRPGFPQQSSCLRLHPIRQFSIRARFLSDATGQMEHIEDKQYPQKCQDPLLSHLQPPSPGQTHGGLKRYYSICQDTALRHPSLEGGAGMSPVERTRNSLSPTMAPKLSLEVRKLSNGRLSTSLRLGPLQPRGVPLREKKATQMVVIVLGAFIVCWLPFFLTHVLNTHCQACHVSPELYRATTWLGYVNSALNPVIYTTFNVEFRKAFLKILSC
T2 sequence (P61169 whole entry): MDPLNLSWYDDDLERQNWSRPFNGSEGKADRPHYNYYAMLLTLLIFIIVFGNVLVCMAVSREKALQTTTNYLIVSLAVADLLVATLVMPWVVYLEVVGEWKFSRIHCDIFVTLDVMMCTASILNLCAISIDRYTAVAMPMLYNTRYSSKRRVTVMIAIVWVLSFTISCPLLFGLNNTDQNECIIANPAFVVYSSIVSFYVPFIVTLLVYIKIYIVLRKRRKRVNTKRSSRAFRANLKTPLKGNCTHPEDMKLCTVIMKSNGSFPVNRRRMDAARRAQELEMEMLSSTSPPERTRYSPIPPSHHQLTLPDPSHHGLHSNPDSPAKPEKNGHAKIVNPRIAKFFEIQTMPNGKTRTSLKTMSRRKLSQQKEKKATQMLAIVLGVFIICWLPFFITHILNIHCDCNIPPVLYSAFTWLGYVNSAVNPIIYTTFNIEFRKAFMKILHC

Row | Structure (SMILES) | Ki (D3 receptor) [nM] | Ki (D2L receptor) [nM] | Agonism at D3 compared with dopamine (hD3 receptor) | further results
1 | OCCN1CCN(Cc2ccc(O)c3ncccc23)CC1 [VK 28, 5-((4-(2-hydroxyethyl)piperazin-1-yl)methyl)quinolin-8-ol] |  |  |  | Activity in animal experiments [1]: antioxidant and neuroprotective
2 | CCCN(CCN1CCN(C(=O)c2cc3ccccc3[nH]2)CC1)C1CCc2ccc(O)cc2C1 (stereo not drawn) [Compound 40c, (4-{2-[(7-Hydroxy-1,2,3,4-tetrahydro-naphthalen-2-yl)-propyl-amino]-ethyl}-piperazin-1-yl)-(1H-indol-2-yl)-methanone] | 3.72 | 116 |  | D2/D3 (Ki ratio, binding selectivity) (D3 receptor; Ki D2 / Ki D3): 31
3 | CCCN(CCN1CCN(Cc2ccc3[nH]ccc3c2)CC1)C1CCc2ccc(O)cc2C1 (stereo not drawn) [Compound 40b, 7-({2-[4-(1H-Indol-5-ylmethyl)-piperazin-1-yl]-ethyl}-propyl-amino)-5,6,7,8-tetrahydro-naphthalen-2-ol] | 3.87 | 144 |  | 
4 | CN1CCc2cccc3c2[C@H]1Cc1ccc(O)c(O)c1-3 [apomorphine] |  |  |  | Average contralateral rotation (6-OHDA lesioned rats; 0.05 mg/kg, 21 days post lesion, recorded for 30 min): > 250
5 | CCCN(CCC)CCc1cccc2c1CC(=O)N2 [ropinirole, reference compound] |  |  | full or near-complete agonism | Rotations and duration of action (6-OHDA lesioned rats; 5 μMol/kg): much less rotations with shorter duration of action; Effect on rotations compared to vehicle (Dunnett) (6-OHDA lesioned rats; (−)19b two doses i.p., ropinirole): significant; Reversal of reserpine-induced hypolocomotion (horizontal locomotor activity) (reserpinized rats): significantly different; Duration of action in reserpinized rats (reserpinized rats; compared with (−)19b): much shorter duration of action
6 | C#CCNCc1ccc(O)c2ncccc12 [Compound M30, 5-((prop-2-ynylamino)methyl)quinolin-8-ol] |  |  |  | Activity in animal experiments [1]: antioxidant and neuroprotective
7 | CCCN(CCN1CCN(c2ccnc3c(O)cccc23)CC1)C1CCc2ccc(O)cc2C1 (single isomer, unassigned; (+)) [(+)19a, (+)-4-(4-(2-((7-hydroxy-1,2,3,4-tetrahydronaphthalen-2-yl) (propyl)amino)ethyl)piperazin-1-yl)quinolin-8-ol] |  |  | full or near-complete agonism | 
8 | CCCN(CCN1CCN(C(=O)c2n[nH]c3ccccc23)CC1)C1CCc2c(O)cccc2C1 (stereo not drawn) [Compound 40g, (4-{2-[(5-Hydroxy-1,2,3,4-tetrahydro-naphthalen-2-yl)-propyl-amino]-ethyl}-piperazin-1-yl)-(1H-indazol-3-yl)-methanone] | 2.83 | 28 |  | 
9 | CCCN(CCN1CCN(c2ccnc3c(O)cccc23)CC1)C1CCc2c(O)cccc2C1 (single isomer, unassigned; (-)) [Compound (−)19b, (−)-4-(4-(2-((5-hydroxy-1,2,3,4-tetrahydronaphthalen-2-yl) (propyl)amino)ethyl)piperazin-1-yl)quinolin-8-ol] |  |  | full or near-complete agonism | Rotational activity at the higher dose (6-OHDA lesioned rats; 1 μMol/kg (0.61 mg/kg), 11 h): remained high at the termination of the experiments; Reversal of reserpine-induced hypolocomotion (horizontal locomotor activity) (reserpinized rats): highly efficacious; also recorded: significantly different
10 | CCCN(CCN1CCN(C(=O)c2ccc3[nH]ccc3c2)CC1)[C@H]1CCc2c(O)cccc2C1 [Compound (−)-45, (S)-(4-{2-[(5-Hydroxy-1,2,3,4-tetrahydro-naphthalen-2-yl)-propyl-amino]-ethyl}-piperazin-1-yl)-(1H-indol-5-yl)-methanone] | 2.27 | 157 |  | 
